Laboratory results taken from patent publication US20090030066A1, “SMALL MOLECULES FOR THE PROTECTION OF PANCREATIC CELLS” (priority 2007, published 2009).

What was measured:
STZ-treated mice = assay: STZ-treated mice, third experiment (fasted): blood glucose, body weight, survival; format: in vivo
Experimental: The effects of CCompound1 on blood glucose level and body weight as well as survival were also examined in a third experiment. Animals weighing between 24.6-25.3 g were selected for this experiment with each group consisting of 6 mice. One group of mice (group 1) received no treatment over the entire experiment, while in the other two groups (groups 2-3), animals were injected (i.p.) with 210 mg/kg of STZ on day 0. Animals in group 3 were also injected (i.p.) with 4.5 mg per kg of CCompound1 once daily for 10 days starting 24 h prior to STZ treatment. CCompound1 and STZ were dissolved as previously indicated.
In this experiment the animals were fasted for 13-14 hours (fasted overnight from 6 p.m. to 7-8 a.m. and returned to normal diet from 8 a.m. to 6 p.m) prior to taking the blood samples.

L-arginine-treated rats = assay: L-arginine-treated rat model of necrotic pancreatitis; format: in vivo
Source text: L-arginine-treated rats are frequently used experimental tools to model necrotic pancreatitis [Krajewski, E., Krajewski, J., Spodnik, J. H., Figarski, A. and Kunasik-Juraniec, J. (2005) Changes in the morphology of the acinar cells of the rat pancreas in the oedematous and nectoric types of experimental acute pancreatitis. Folia Morphol. 64, 292-303]. L-arginine is a precursor of NO which primarily destroys the exocrine pancreas with subsequent damage of insulin producing islet cells. Just like pancreatitis is often associated with elevated blood glucose level in human patients, extensive damage of pancreas in the L-arginine-treated animal model also results in damaged function of β-cells as indicated by higher blood glucose levels. In this example, the L-arginine-treated rat model was employed to see if CCompound1 could also prevent or reduce deterioration of β-cell function and the damage of the exocrine pancreas.
Male Wistar rats weighing 220-250 g were divided into four groups, each group consisting of 6 animals. To ensure standard conditions animals were starved for 16 hours before the start of the experiment. CCompound1 was first injected 24 hours prior to L-arginine injection, followed by similar daily injections for 5 consecutive days. In the first group, rats remained untreated. On day 0, animals in groups 2-4 were injected 2×2.5 g/kg L-arginine i.p. at one hour intervals. Animals in group 4 also received daily s.c. injection of 4.5 mg/kg of CCompound1 between days −1 and 5. To verify development of acute pancreatitis, 24 hours after L-arginine injections rats in group 2 were anesthetized with 45 mg/kg pentobarbital i.p. and exsanguinated through the abdominal aorta. On day 0, 2, 4 and 6 blood sugar values of the experimental animals were measured after fasting for 8 hours with the C-test; blood samples were taken from the tail. Edema of the pancreatic tissue was assessed by the pancreatic weight/body weight ratio. The animals in the remaining groups were sacrificed on day 7.
For histological examinations, a portion of the head of the pancreas was fixed in 4% neutral formaldehyde solution and embedded in paraffin. Tissue slices were stained with hematoxylin and eosin and examined by light microscopy. Slices were coded and examined blind by a pathologist for the grading of histological alterations. The extent and intensity of pancreatic edema, leukocyte infiltration, acinar vacuolization, hyperemia and tubular transformation were described with scores ranging from 0 to 3. The total histological damage was calculated by adding the scores for the various below listed parameters together.
Hyperemia; defined as the amount of red blood cells in the vessels.
Edema; defined as the widening of interstitial space.
Vacuolization; defined as the formation of vacuoles in the cytoplasm of acinar cells. Vacuolization results from the fusion of zymogene granules and lysosomes.
Inflammation; defined and quantified by the infiltration of the tissue with mononuclear inflammatory cells (lymphocytes, plasma cells, and mast cells).
Necrosis; defined as the measure of the extent of the destruction of normal pancreatic tissue structure.
Tubular transformation; defined as desquamation of acinar cell apical cytoplasm and release of cytoplasm segments into the acinar lumen leading to formation of duct-like tubular complexes. (Elsässer H. P., Adler G and Kern H. F. (1986) Time course and cellular source of pancreatic regeneration following acute pancreatitis in the rat. Pancreas 1 (5) 421-9).
Total histological damage (total damage); defined and calculated by combining the histological scores of the above mentioned parameters (except vacuolization). This value is the generally accepted best representation of the severity of pancreatitis in the art. […]

[1] = L-arginine + compound, pancreas, day 7

Cc1c(OCC(O)C[N+](C)(C)C)cc2c(=O)c3ccccc3sc2c1C.[Cl-] (centres unmarked) [CCcompound1, [3-(3,4-Dimethyl-9-oxo-9H-thioxanthen-2-yloxy)-2-hydroxypropyl]trimethyl-ammonium chloride]
Blood glucose (STZ-treated mice; STZ 210 mg/kg i.p. day 0 + compound 4.5 mg/kg i.p. daily for 10 days from day −1, fasted, day −1): 2.1 ± 0.3 mM
Blood glucose (STZ-treated mice; STZ + compound 4.5 mg/kg i.p. daily for 10 days (stopped day 9), fasted, day 14): 11.8 ± 1.0 mM
Blood glucose (STZ-treated mice; STZ + compound 4.5 mg/kg i.p. daily for 10 days (stopped day 9), fasted, day 21): 12.5 ± 0.8 mM
Body weight (STZ-treated mice; STZ + compound 4.5 mg/kg i.p. daily for 10 days, day 0): 25.1 ± 0.5 g
Body weight (STZ-treated mice; STZ + compound 4.5 mg/kg i.p. daily for 10 days, day 3): 24.3 ± 1.0 g
Body weight (STZ-treated mice; STZ + compound 4.5 mg/kg i.p. daily for 10 days, day 5): 24.2 ± 0.9 g
Body weight (STZ-treated mice; STZ + compound 4.5 mg/kg i.p. daily for 10 days, day 7): 24.1 ± 0.7 g
Body weight (STZ-treated mice; STZ + compound 4.5 mg/kg i.p. daily for 10 days, day 9): 24.3 ± 0.8 g
Body weight (STZ-treated mice; STZ + compound 4.5 mg/kg i.p. daily for 10 days, day 11): 24.3 ± 0.9 g
Body weight (STZ-treated mice; STZ + compound 4.5 mg/kg i.p. daily for 10 days, day 13): 24.5 ± 1.1 g
Body weight (STZ-treated mice; STZ + compound 4.5 mg/kg i.p. daily for 10 days, day 15): 23.9 ± 0.4 g
Body weight (STZ-treated mice; STZ + compound 4.5 mg/kg i.p. daily for 10 days, day 17): 24.5 ± 1.1 g
Body weight (STZ-treated mice; STZ + compound 4.5 mg/kg i.p. daily for 10 days, day 21): 24.4 ± 1.0 g
Blood glucose (STZ-treated mice; STZ + compound 4.5 mg/kg i.p. daily for 10 days, fasted, day 0): 2.1 ± 0.2 mM
Blood glucose (STZ-treated mice; STZ + compound 4.5 mg/kg i.p. daily for 10 days, fasted, day 1): 6.7 ± 0.7 mM
Blood glucose (STZ-treated mice; STZ + compound 4.5 mg/kg i.p. daily for 10 days, fasted, day 2): 7.1 ± 0.5 mM
Blood glucose (STZ-treated mice; STZ + compound 4.5 mg/kg i.p. daily for 10 days, fasted, day 3): 7.2 ± 0.5 mM
Blood glucose (STZ-treated mice; STZ + compound 4.5 mg/kg i.p. daily for 10 days, fasted, day 4): 7.6 ± 0.4 mM
Blood glucose (STZ-treated mice; STZ + compound 4.5 mg/kg i.p. daily for 10 days, fasted, day 5): 8.2 ± 0.4 mM
Blood glucose (STZ-treated mice; STZ + compound 4.5 mg/kg i.p. daily for 10 days, fasted, day 6): 8.6 ± 0.3 mM
Blood glucose (STZ-treated mice; STZ + compound 4.5 mg/kg i.p. daily for 10 days, fasted, day 7): 9.3 ± 0.5 mM
Blood glucose (STZ-treated mice; STZ + compound 4.5 mg/kg i.p. daily for 10 days, fasted, day 8): 10.4 ± 0.7 mM
Blood glucose (STZ-treated mice; STZ + compound 4.5 mg/kg i.p. daily for 10 days, fasted, day 9): 11.0 ± 1.1 mM
mice alive on day 53 (STZ-treated mice; STZ + compound, 6 mice per group): 6
body weight lost (STZ-treated mice; co-treated with compound and STZ, day 0 to day 21): 0.7 to 1.2 g
reduction of the effects of STZ on blood glucose level (STZ-treated mice; days 3 and 4): more than 50%
effect on L-arginine-stimulated blood glucose (L-arginine-treated rats; 4.5 mg/kg s.c. daily): reduced L-arginine-stimulated blood glucose to control level
Blood glucose (L-arginine-treated rats; L-arginine 2×2.5 g/kg i.p. day 0 + compound 4.5 mg/kg s.c. daily days −1 to 5, fasted 8 h, day 0): 6.28 ± 0.31 mM
effect on tissue necrosis (L-arginine-treated rats; L-arginine + compound): significant reduction in tissue necrosis
Blood glucose (L-arginine-treated rats; L-arginine + compound 4.5 mg/kg s.c. daily, fasted 8 h, day 2): 6.46 ± 0.33 mM
Blood glucose (L-arginine-treated rats; L-arginine + compound 4.5 mg/kg s.c. daily, fasted 8 h, day 4): 6.26 ± 0.21 mM
Blood glucose (L-arginine-treated rats; L-arginine + compound 4.5 mg/kg s.c. daily, fasted 8 h, day 6): 6.00 ± 0.49 mM
insulin staining score (scale 0 to 3) (L-arginine-treated rats; L-arginine + compound, day 7, immunohistochemistry of pancreas): 2.45±0.30
Edema histological score (0 to 3) (L-arginine-treated rats; [1]): 1.33 ± 0.21
Hyperemia histological score (0 to 3) (L-arginine-treated rats; [1]): 1.17 ± 0.17
Inflammation histological score (0 to 3) (L-arginine-treated rats; [1]): 2.00 ± 0.00
Necrosis histological score (0 to 3) (L-arginine-treated rats; [1]): 1.25 ± 0.36
Total damage (sum of histological scores except vacuolization) (L-arginine-treated rats; [1]): 7.75 ± 0.70
Tubular transformation histological score (0 to 3) (L-arginine-treated rats; [1]): 2.00 ± 0.37
Vacuolization histological score (0 to 3) (L-arginine-treated rats; [1]): 1.17 ± 0.17
protection of endocrine and exocrine pancreatic cells (L-arginine-treated rats; L-arginine-induced necrotic pancreatitis model): partially or fully protected both the endocrine and exocrine pancreatic cells
